The values that follow come from patent US7659293B2, “α-Amino-N-hydroxy-acetamide derivatives” (Novartis AG, priority 2001, dated 2010).

In this assay the target is T1, MMP9 (Gelatinase-B) (Homo sapiens, UniProt P14780).
T1 construct: endogenous in cells; host or cells: THP1 human monocytic leukemia cells, TPA-stimulated; purified from culture medium
Briefly: Assay of MMP9 (fluorogenic peptide). The class given is biochemical. The note with it: mean ± SEM of three independent experiments. The procedure: MMP9 is prepared form the culture medium of THP1 human monocytic leukemia cells treated with TPA. THP1 cells are maintained in a culture of DMEM/F-12 with 10% FCS and stimulated to produce pro-MMP9 with TPA (1 nM) in serum-free medium for 48 h. All purification procedures are carried out at 4° C. The 1 liters of culture medium is concentrated to 100 ml by Centricon (Amicon) and applied to a column (1×8 cm) of gelatin-sepharose (Pharmacia) equilibrated with 50 mM Tris-Cl (pH=8.0), 300 mM NaCl. The fraction containing pro-MMP-9 is eluted with 10% DMSO in 50 mM Tris-Cl (pH=8.0), 300 mM NaCl, then dialyzed against 50 mM Tris-Cl (pH 7.5), 150 mM NaCl. The fraction is concentrated by Centricon and subjected to column chromatography of Sephadex G200 (2×20 cm) equilibrated with 50 mM Tris-Cl (pH=7.5) containing 150 mM NaCl. The purified Pro-MMP9 is stored at −80° C. as a stock and the necessary amount of pro-form is used for activation. Pro-MMP9 is activated with 1 mM aminophenyl mercury acetate (APMA, ICN Pharmaceuticals) in 50 mM Tris-Cl (pH=7.5) containing 150 mM NaCl, 10 mM CaCl2 and 0.05% Brij-35 (MMP Assay Buffer) for 18 h at 37° C., and the APMA is removed by extensive dialysis against MMP Assay Buffer. […]
The activated MMP-9 (82 kDa) is then used to screen compounds. […] The increase of fluorescence is monitored at 460 nm with excitation at 355 nm. […]

Structures can show the parent of a compound that is named as a salt.

T1 sequence (P14780 107-707 limits assumed): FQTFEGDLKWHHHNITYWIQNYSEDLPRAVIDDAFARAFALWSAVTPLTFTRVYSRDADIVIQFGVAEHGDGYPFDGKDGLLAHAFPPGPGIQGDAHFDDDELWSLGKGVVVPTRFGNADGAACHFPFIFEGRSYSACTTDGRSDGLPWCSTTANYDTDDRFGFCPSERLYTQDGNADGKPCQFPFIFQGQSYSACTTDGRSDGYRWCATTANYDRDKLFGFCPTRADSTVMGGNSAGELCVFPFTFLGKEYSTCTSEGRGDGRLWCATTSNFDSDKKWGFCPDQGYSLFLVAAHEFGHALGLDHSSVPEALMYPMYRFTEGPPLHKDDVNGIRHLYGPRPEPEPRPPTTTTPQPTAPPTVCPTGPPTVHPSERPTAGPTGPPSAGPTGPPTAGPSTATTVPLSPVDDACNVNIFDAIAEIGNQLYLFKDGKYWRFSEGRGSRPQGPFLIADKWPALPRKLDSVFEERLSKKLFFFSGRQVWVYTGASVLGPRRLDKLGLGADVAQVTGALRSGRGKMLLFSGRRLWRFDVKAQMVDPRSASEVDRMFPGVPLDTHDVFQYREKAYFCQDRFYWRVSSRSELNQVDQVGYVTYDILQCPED

What is called IC50 is the point on the concentration scale where inhibition reaches its midpoint. Read a low IC50 as greater potency. Regarding `CN(C)c1ccc(CN(CC(=O)NO)S(=O)(=O)c2ccc(OCC3CC3)cc2)cc1` [Example 2, 2-[(4-Cyclopropylmethoxy-benzenesulfonyl)-(4-dimethylamino-benzyl-amino]-N-hydroxy-acetamide HCl salt], the IC50 is 2.57 ± 0.27 nM.
